Experimental data reported in patent US10336733B2, “Aryl acylsulfonamides as BLT1 antagonists” (Merck Sharp & Dohme Corp., priority 2015, dated 2019).

Biological target: human BLT1 receptor (Homo sapiens (Human), UniProt Q15722)
Test: BLT-1 cAMP Assay
Type: cell-based
Settings: antagonist mode; HEK293 cells recombinantly expressing human BLT1 receptor; forskolin 4 μM and LTB4 2 nM; cAMP detection
Description: The ability of compounds to antagonize the human BLT1 receptor was determined using a kit to measure changes in intracellular cyclic AMP levels (cAMP dynamic assay kit, Cisbio Cat. No. 62AM4PEC). HEK293 cells recombinantly expressing human BLT1 receptor, previously frozen in Recovery Medium (Life Technologies, Cat. No. 12648-010) were thawed and diluted into assay medium (HBSS (Hyclone SH 30268.01), 20 mM HEPES (Gibco 15630-106), 800 μM IBMX (Sigma I5879), 0.1% DTPA BSA (Perkin Elmer CR84-100)). The cell suspension was centrifuged at 200×g for 10 min and then resuspended in fresh assay medium to a density of 2.5×10^5 cells/mL. A Labcyte Echo 550 acoustic dispenser was used to transfer 25 nL of test compound dissolved in DMSO into the wells of a dry 384-well plate (Greiner 784075). All subsequent liquid additions were performed using a BIORAPTR (FRD; Beckman Coulter). Next, 5 μL of cell suspension was added and incubated for 20 min. at 37° C. and 5% CO2 in a humidified plastic tray. To test for agonist activity […] of assay buffer containing forskolin (Sigma F-6886. 4 μM for BLT1) was added and incubated for 30 minutes at 37° C. and 5% CO2 in a humidified plastic tray. To test for antagonist activity 5 μL of assay buffer containing forskolin (Sigma F-6886. 4 μM for BLT1) and either LTB4 (Sigma Aldrich L0517; 2 nM BLT1) was added and incubated for 30 minutes at 37° C. and 5% CO2 in a humidified plastic tray.
The levels of cAMP were detected using the CisBio kit following the manufacturer's instructions: cAMP-d2 vial was reconstituted with distilled water and then diluted accordingly with conjugate & lysis buffer. 5 μL of cAMP-d2 working solution was added to all of the wells of the assay plate. cAMP-Cryptate vial was reconstituted with distilled water and then diluted accordingly with conjugate & lysis buffer. 5 μL of cAMP-Cryptate working solution were added to the assay plate. The assay plate was shaken for 3 minutes and incubated at room temperature for 45 minutes, then read on Perkin Elmer Envision. cAMP standard curve and fit data were plotted using a 4 parameter dose response curve fitting algorithm to fit curve. A 4-parameter curve fit (Max, min, log EC50 and slope) was used to transform fluorescent 665 nm/615 nm ratio signal to cAMP concentration. After normalization to treated and untreated controls, the percent effect of signal at each compound concentration was calculated. The plot of percent effect versus the log of compound concentration was fit with a 4-parameter concentration response equation to calculate EC50 values. Compound concentrations tested were 10 000, 3 333, 1 111, 370.4, 123.4, 41.2, 13.7, 4.6, 1.5 and 0.5 nM with 0.25% residual DMSO.

Sequence of human BLT1 receptor (Q15722 whole entry): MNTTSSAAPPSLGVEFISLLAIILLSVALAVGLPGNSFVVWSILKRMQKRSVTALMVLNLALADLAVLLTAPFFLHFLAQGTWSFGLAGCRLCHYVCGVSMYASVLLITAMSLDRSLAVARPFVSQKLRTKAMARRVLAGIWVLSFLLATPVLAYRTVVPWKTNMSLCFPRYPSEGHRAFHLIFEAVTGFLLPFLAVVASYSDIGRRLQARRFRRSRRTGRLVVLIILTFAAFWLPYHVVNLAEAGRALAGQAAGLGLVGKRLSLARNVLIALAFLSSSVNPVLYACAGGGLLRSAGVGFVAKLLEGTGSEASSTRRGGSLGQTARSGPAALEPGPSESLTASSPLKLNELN

| Structure (SMILES) | EC50 [nM] |
| --- | --- |
| CC1(S(=O)(=O)NC(=O)c2ccccc2-c2ccc3c(c2)OC[C@H](Cc2cscn2)[C@H]3O)CC1 (racemic) [Example 25, 2-(Rac-trans)-4-Hydroxy-3-(thiazol-4-ylmethyl)chroman-7-yl)-N-((1-methylcyclopropyl)sulfonyl)benzamide] | 16 |
| O=C(NS(=O)(=O)C1CC1)c1ccccc1-c1ccc2c(c1)OC[C@H](Cc1ccccn1)[C@H]2O (single isomer, unassigned) [Example 6, N-(Cyclopropylsulfonyl)-2-((3S,4R or 3R,4S)-4-hydroxy-3-(pyridin-2-ylmethyl)chroman-7-yl)benzamide] | 28 |
| Cn1nccc1C[C@@H]1COc2cc(-c3ccccc3C(=O)NS(=O)(=O)C(C)(C)C)ccc2[C@H]1O (racemic) [Example 35, N-(tert-Butylsulfonyl)-2-((rac-trans)-4-hydroxy-3-((1-methyl-1H-pyrazol-5-yl)methyl)chroman-7-yl)benzamide] | 95 |
| Cn1nccc1C[C@@H]1COc2cc(-c3ccccc3C(=O)NS(=O)(=O)C3(C)CC3)ccc2[C@H]1O (racemic) [Example 28, 2-(Rac-trans)-4-Hydroxy-3-((1-methyl-1H-pyrazol-5-yl)methyl)chroman-7-yl)-N-((1-methylcyclopropyl)sulfonyl)benzamide] | 360 |
| CCn1nccc1C[C@@H]1COc2cc(-c3ccccc3C(=O)NS(=O)(=O)C(C)(C)C)ccc2[C@H]1O (racemic) [Example 36, N-(tert-Butylsulfonyl)-2-((rac-trans)-3-((1-ethyl-1H-pyrazol-5-yl)methyl)-4-hydroxychroman-7-yl)benzamide] | 81 |
| CCn1nccc1C[C@@H]1COc2cc(-c3ccccc3C(=O)NS(=O)(=O)C(C)(C)C)ccc2[C@H]1O (single isomer, unassigned) [Example 38, N-(tert-Butylsulfonyl)-2-((3R,4S or 3S,4R)-3-((1-ethyl-1H-pyrazol-5-yl)methyl)-4-hydroxychroman-7-yl)benzamide] | 1160 |
| CC1(S(=O)(=O)NC(=O)c2ccccc2-c2ccc3c(c2)OC[C@@H](Cc2ccccc2)[C@@H]3O)CC1 (single isomer, unassigned) [Example 21, 2-((3R,4S or 3S,4R)-3-Benzyl-4-hydroxychroman-7-yl)-N-((1-methylcyclopropyl)sulfonyl)benzamide] | 2040 |
| O=C(NS(=O)(=O)CC1CC1)c1ccccc1-c1ccc2c(c1)OCC(Cc1ccccn1)C2O (stereo not drawn) [Example 18, N-((Cyclopropylmethyl)sulfonyl)-2-((3,4-trans)-4-hydroxy-3-(pyridin-2-ylmethyl)chroman-7-yl)benzamide] | 23 |
| CC1(S(=O)(=O)NC(=O)c2ccccc2-c2ccc3c(c2)OC[C@H](Cc2coc(-c4ccccc4)n2)[C@H]3O)CC1 (single isomer, unassigned) [Example 45, 2-((3S,4R or 3R,4S)-4-hydroxy-3-((2-phenyloxazol-4-yl)methy)chroman-7-yl)-N-((1-methylcyclopropyl)sulfonyl)benzamide] | 3 |
| CC1(S(=O)(=O)NC(=O)c2ccccc2-c2ccc3c(c2)OC[C@H](Cc2cscn2)[C@H]3O)CC1 (single isomer, unassigned) [Example 27, 2-((3S, 4R or 3R,4S)-4-hydroxy-3-(thiazol-4-ylmethyl)chroman-7-yl)-N-((1-methylcyclopropyl)sulfonyl)benzamide] | 26 |
| C[C@@H](c1ccccn1)C1COc2cc(-c3ccccc3C(=O)NS(=O)(=O)C3(C)CC3)ccc2C1O (stereo in doubt) [Example 49, 2-((3,4-trans)-4-Hydroxy-3-((R)-1-(pyridin-2-yl)ethyl)chroman-7-yl)-N-((1-methylcyclopropyl)sulfonyl)benzamide] | 154 |
| CC1(S(=O)(=O)NC(=O)c2ccccc2-c2ccc3c(c2)OC[C@H](Cc2ccccn2)[C@H]3O)CC1 (single isomer, unassigned) [Example 8, 2-((3S,4R or 3R,4S)-4-Hydroxy-3-(pyridin-2-ylmethyl)chroman-7-yl)-N-((1-methylcyclopropyl)sulfonyl)benzamide] | 22 |
| O=C(NS(=O)(=O)C(F)(F)F)c1ccc(F)cc1-c1ccc2c(c1)OC[C@@H](Cc1ccccn1)[C@@H]2O (single isomer, unassigned) [Example 1, 4-Fluoro-2-((3R,4S or 3S,4R)-4-hydroxy-3-(pyridin-2-ylmethyl)chroman-7-yl)-N-((trifluoromethyl)sulfonyl)benzamide] | 650 |
| CC(C)(C)CS(=O)(=O)NC(=O)c1ccccc1-c1ccc2c(c1)OCC(Cc1ccccn1)C2O (stereo not drawn) [Example 20, 2-((3,4-trans)-4-Hydroxy-3-(pyridin-2-ylmethyl)chroman-7-yl)-N-(neopentylsulfonyl)benzamide] | 44 |
| O=C(NS(=O)(=O)C(F)(F)F)c1ccc(F)cc1-c1ccc2c(c1)OC[C@@H](Cc1ccc(-c3ccccc3)cc1)[C@@H]2O (single isomer, unassigned) [Example 41, 2-((3R,4S or 3S,4R)-3-([1,1′-Biphenyl]-4-ylmethyl)-4-hydroxychroman-7-yl)-4-fluoro-N-((trifluoromethyl)sulfonyl)benzamide] | 11 |
| O=C(NS(=O)(=O)C1CCCC1)c1ccccc1-c1ccc2c(c1)OCC(Cc1ccccn1)C2O (stereo not drawn) [Example 19, N-(Cyclopentylsulfonyl)-2-((3,4-trans)-4-hydroxy-3-(pyridin-2-ylmethyl)chroman-7-yl)benzamide] | 48 |

Further molecules by falling EC50, results first:

| EC50 [nM] | Structure (SMILES) |
| --- | --- |
| 19 | CC1(S(=O)(=O)NC(=O)c2ccccc2-c2ccc3c(c2)OC[C@@H](Cc2coc(-c4ccccc4)n2)[C@@H]3O)CC1 (racemic) [Example 43, 2-(Rac-trans)-4-hydroxy-3-((2-phenyloxazol-4-yl)methy)chroman-7-yl)-N-((1-methylcyclopropyl)sulfonyl)benzamide] |
| 17 | O=C(NS(=O)(=O)C1CC1)c1ccccc1-c1ccc2c(c1)OC[C@H](Cc1ccccc1)[C@H]2O (single isomer, unassigned) [Example 24, 2-((3S,4R or 3R,4S)-3-Benzyl-4-hydroxychroman-7-yl)-N-(cyclopropylsulfonyl)benzamide] |
| 15 | CC1(S(=O)(=O)NC(=O)c2ccccc2-c2ccc3c(c2)OC[C@H](Cc2ccccc2)[C@H]3O)CC1 (single isomer, unassigned) [Example 22, 2-((3S,4R or 3R,4S)-3-Benzyl-4-hydroxychroman-7-yl)-N-((1-methylcyclopropyl)sulfonyl)benzamide] |
| 9 | CC(C)(C)S(=O)(=O)NC(=O)c1ccccc1-c1ccc2c(c1)OC[C@H](Cc1cscn1)[C@H]2O (single isomer, unassigned) [Example 34, N-(tert-Butylsulfonyl)-2-((3S,4R or 3R,4S)-4-hydroxy-3-(thiazol-4-ylmethyl)chroman-7-yl)benzamide] |
| 9 | O=C(NS(=O)(=O)C(F)(F)F)c1ccc(F)cc1-c1ccc2c(c1)OC[C@H](Cc1ccc(-c3ccccc3)cc1)[C@H]2O (racemic) [Example 40, 2-((Rac-trans)-3-([1,1′-Biphenyl]-4-ylmethyl)-4-hydroxychroman-7-yl)-4-fluoro-N-((trifluoromethyl)sulfonyl)benzamide] |
| 5 | CC(C)(C)S(=O)(=O)NC(=O)c1ccccc1-c1ccc2c(c1)OC[C@H](Cc1coc(-c3ccccc3)n1)[C@H]2O (single isomer, unassigned) [Example 48, N-(tert-Butylsulfonyl)-2-((3S,4R or 3R,4S)-4-hydroxy-3-((2-phenyloxazol-4-yl)methyl)chroman-7-yl)benzamide] |
| 4 | O=C(NS(=O)(=O)C1CC1)c1ccc(F)cc1-c1ccc2c(c1)OC[C@H](Cc1ccccn1)[C@H]2O (single isomer, unassigned) [Example 16, N-(Cyclopropylsulfonyl)-4-fluoro-2-((3S,4R or 3R,4S)-4-hydroxy-3-(pyridin-2-ylmethyl)chroman-7-yl)benzamide] |
| 4 | CC1(S(=O)(=O)NC(=O)c2ccc(F)cc2-c2ccc3c(c2)OC[C@H](Cc2ccccn2)[C@H]3O)CC1 (single isomer, unassigned) [Example 9, 4-Fluoro-2-((3S,4R or 3R,4S)-4-hydroxy-3-(pyridin-2-ylmethyl)chroman-7-yl)-N-((1-methylcyclopropyl)sulfonyl)benzamide] |
